{"source": "patent US20240049721A1", "about": "“COMPOSITIONS AND METHODS FOR CONTROLLING FUNGI” (priority 2020, published 2024)", "key": {"Fusarium graminearum": {"tested_on": "Fusarium graminearum", "format": "in vivo", "conditions": "wheat crop"}, "Leaf blotch": {"tested_on": "Leaf blotch", "assay": "Wheat trial: leaf blotch", "format": "in vivo", "conditions": "wheat crop"}, "[1]": {"assay": "Loading (encapsulation) efficacy of essential oils into AgriCell", "format": "physicochemical", "conditions": "EO encapsulated into AgriCell; original EO concentration 200 mg/mL; UV-Vis at 280 nm after ethanol extraction", "protocol": "After AgriCells are purified, the concentrated AgriCell paste or dry lyophilized powder is loaded with EOs. If dry, the AgriCells are first homogenized into a finer powder through mechanical homogenization. A stock solution from each EO is prepared in ethanol at 100 mg/mL-200 mg/mL. Lyophilized AgriCells would then be suspended in a solution with the EO solution at a ratio of 1 g of dry AgriCells to 10 mL of EO solution. Once resuspended, the ethanol is allowed to evaporate overnight, leaving behind EO encapsulated AgriCells in the process. After this overnight period, encapsulated AgriCells are removed from the beaker, and the EO-encapsulated AgriCell powder is mechanically homogenized. This encapsulated product is ready for resuspension in its appropriate medium. Loading efficacy was measured and/or calculated as percentage of EO loaded into AgriCell after extraction with ethanol 100% v/v and quantification by UV-Vis spectroscopy. Eugenol, geraniol and thymol were quantified at 280 nm."}, "[2]": {"assay": "Oxidative degradation of essential oils under UV and Vis light", "format": "physicochemical", "protocol": "AgriCell-encapsulated EOs, which were AC-Eugenol, AC-Geraniol, and AC-Thymol, (200 mg/mL of EO loaded with 200 mg/mL of AgriCell) were diluted 1:10 in deionized water (total volume 1000 μL, 14 replicates for each EO) and the solutions were left under UV radiation for a total period of 7 days. One replicate of each EO per treatment was collected daily and tested for EO content by UV-Vis spectroscopy as described in Example 2. Results were reported as concentration of EO as function of time for each stability condition."}, "[3]": {"assay": "Thermal degradation of essential oils at 40° C.", "format": "physicochemical", "protocol": "AgriCell-encapsulated EOs, which were AC-Eugenol, AC-Geraniol, and AC-Thymol, (200 mg/mL of EO loaded with 200 mg/mL of AgriCell) were diluted 1:10 in deionized water (total volume 1000 μL, 14 replicates for each EO) and the solutions were left at 40° C. for a total period of 7 days. One replicate of each EO per treatment was collected daily and tested for EO content. Results were reported as concentration of EO as function of time for each stability condition."}, "[4]": {"assay": "Thermogravimetric analysis (TGA) 37° C. to 500° C.", "format": "physicochemical", "conditions": "temperature increase from 37° C. to 500° C.", "protocol": "FIG. 9 illustrates thermogravimetric Analysis (“TGA”) between AgriCell encapsulated Thymol (“AC Thymol”) and free Thymol (“Thymol”; not encapsulated by AgriCell) along with gradual increase of temperature from 37° C. to 500° C."}, "Botrytis cinerea": {"tested_on": "Botrytis cinerea", "conditions": "against B. cinerea; reported value; cited from earlier work"}}, "note": "“And” between values parts separate entries of the source, which are not always exact repeats. Equal values may be shown once.", "data": [{"smiles": "CC(C)(C)C(O)(CCc1ccc(Cl)cc1)Cn1cncn1", "note": "(stereo not drawn) [Tebuconazole (Folicur), Tebuconazole]", "values": [{"measurement": "Average FHB severity %", "setting": "Fusarium graminearum", "value": "8.3% and 1.5%"}, {"measurement": "FHB Incidence %", "setting": "Fusarium graminearum", "value": "4.2% and 2.5%"}, {"measurement": "Leaf blotch Incidence %", "setting": "Leaf blotch", "value": 100, "unit": "%"}, {"measurement": "Leaf blotch severity %", "setting": "Leaf blotch", "value": "3.6% and 3.8%"}]}, {"smiles": "C=CCc1ccc(O)c(OC)c1", "note": "[eugenol]", "values": [{"measurement": "encapsulation efficacy", "setting": "[1]", "value": 95.5, "unit": "%"}, {"measurement": "oxidative degradation (reduction of EO)", "setting": "[2]; 7 days, 20 mg/mL", "value": 82.6, "unit": "%"}, {"measurement": "percentage of degradation (thermal)", "setting": "[3]; 7 days, 20 mg/mL", "value": 82.6, "unit": "%"}]}, {"smiles": "CC(C)=CCC/C(C)=C/CO", "note": "[geraniol]", "values": [{"measurement": "encapsulation efficacy", "setting": "[1]", "value": 89.0, "unit": "%"}, {"measurement": "oxidative degradation (reduction of EO)", "setting": "[2]; UV radiation, after 7 days, diluted 1:10 in deionized water", "value": 72.6, "unit": "%"}, {"measurement": "percentage of degradation (thermal)", "setting": "[3]; 40° C., day 7, diluted 1:10 in deionized water", "value": 84.2, "unit": "%"}]}, {"smiles": "Cc1ccc(C(C)C)c(O)c1", "note": "[thymol]", "values": [{"measurement": "encapsulation efficacy", "setting": "[1]", "value": 91.8, "unit": "%"}, {"measurement": "start of accelerated degradation (TGA)", "setting": "[4]", "value": "about 62 °C"}, {"measurement": "reported EC50", "setting": "Botrytis cinerea", "value": 21.32, "unit": "µg/mL"}, {"measurement": "oxidative degradation (reduction of EO)", "setting": "[2]; 7 days, 20 mg/mL", "value": 55.8, "unit": "%"}, {"measurement": "percentage of degradation (thermal)", "setting": "[3]; 7 days, 20 mg/mL", "value": 79.1, "unit": "%"}]}]}
